Laboratory results: patent publication EP0578644B1, “ANTIBIOTIC A 40926 ESTER DERIVATIVES” (GRUPPO LEPETIT S.p.A., priority 1991, dated 1992)

Tests used:
[1] = tested on: Streptococcus pyogenes C203; assay: mouse septicemia (in vivo test); details: CD-1 mice infected intraperitoneally; antibiotics administered subcutaneously immediately after infection; calculated on the 7th day from surviving animals (Spearman and Kaerber)
Method: In these in vivo tests control and treatment groups contained five CD-1 mice (Charles River) weighting 18-22 g. They were infected intraperitoneally with 0.5 ml of bacterial suspension prepared by diluting an overnight culture of Streptococcus pyogenes C203 with sterile peptonized saline. Inocula were adjusted so that untreated animals died of septicemia within 48 hours. Antibiotics were administered subcutaneously immediately after infection. On the 7th day, the ED50 in mg/kg was calculated by the method of Spearman and Kaerber (D.J. Finney, "Statistical Methods in Biological Assay", Griffin, page 524, 1952) from the percentages of surviving animals at each dose. The results of the in vivo testing of representative compounds of the invention are summmarized in Table II below: Table II

[2] = tested on: coagulase-negative staphylococci; assay: in vitro antibacterial activity (MIC, microbroth dilution); format: cell-based; details: compared with the parent compounds (X vs I and VIII vs VII)

Row | Compound | ED50 [1] [mg/kg] | in vitro activity against coagulase-negative staphylococci [2]
1 | CN[C@H]1C(=O)N[C@@H]2Cc3ccc(cc3)Oc3cc4cc(c3O)Oc3ccc(cc3Cl)[C@@H](O)[C@@H]3NC(=O)[C@H](NC(=O)[C@@H]4NC(=O)[C@@H](NC2=O)c2cc(cc(O)c2Cl)Oc2cc1ccc2O)c1ccc(O)c(c1)-c1c(O)cc(O)cc1[C@@H](C(=O)O)NC3=O [A 40926 aglycone, reference compound] | 6.2 | –
2 | Demannosyl A 40926 complex 6^B-(2-bromoethyl) ester [compound VIII] | 0.31 | better in vitro activity
3 | O^42-demannosyl A 40926 6^B-methyl ester [compound X] | 0.31 | better in vitro activity
4 | antibiotic A 40926 complex 6^B-(2-hydroxyethyl) ester [compound V] | 0.18 | –
5 | antibiotic A 40926 complex 6^B-monoethyl ester [compound II] | 0.23 | –
6 | antibiotic A 40926 complex 6^B-monomethyl ester [compound I] | 0.18 | –
